Tests used:
[1] = Decay of PDS in dark and under visible light; assay type: physicochemical; settings: for PDS decayed: within 240 min, regardless of the phosphate
Protocol: (§1) USA) 10 cm away from the lamp. The tubes in the dark treatments were covered with aluminum foil. To further confirm the PDS activation by visible light, experiments were also conducted with a UV filter film covering the simulated sunlight lamp to eliminate the effect of UV light. 1.0 mL of sample was withdrawn from each tube at different elapsed times (t=0, 1, 2, 3, 4, 5, 10, 20, 30, 60, 90, 120, and 240 min) and immediately quenched by 20 μL of 5.0 M sodium thiosulfate. The concentrations of all compositions in collected samples were measured with a Dionex UltiMate 3000 high-performance liquid chromatograph (HPLC) (Sunnyvale, USA). The settings of HPLC are provided in Example 1. The change in the concentration of PDS under different conditions was determined spectrophotometrically via an oxidation decolorization method and a modified iodometric titration method, respectively. The initial and final pH in each tube were measured with an Accumet AE150 pH meter (Westford, USA).
In order to verify whether PDS was directly activated by visible light, the impacts of solution constituents were examined. Because 10 mM phosphate buffer was added to control the initial pH to 7.0 to take into account of the typical pH of natural waters, the impact of phosphate buffer on the decay of PDS was investigated. […] Approximately 20% and 90% of PDS decayed within 240 min in dark and under visible light, respectively, regardless of the phosphate.

[2] = Quenching, anoxic and D2O experiments of ATZ degradation by PDS; assay type: physicochemical
Protocol: In order to identify the main reactive species involved in the degradation of ATZ by PDS under light and in dark, four quenchers were added in the beginning of the reactions to scavenge possible reactive species. The concentration of MeOH, tert-butanol (TBA), and L-histidine (L-his) was 0.5 M, and the concentration of superoxide dismutase (SOD) was 50 U·ml^−1. To analyze the impact of oxygen, purified N2 gas was used to purge the system for 10 min before the quenching experiments. All tubes were capped and then sealed with parafilm to maintain an anoxic environment throughout the reaction. The ATZ concentrations in the samples taken at various time points (t=0, 5, 10, 30, 60, 120, and 240 min) were measured using HPLC. The degradation of ATZ was also repeated with D2O as the solvent for phosphate buffer with the same experimental setups.

[3] = Degradation of compounds by PDS in dark and under visible light (HPLC); assay type: physicochemical; settings: for pseudo-first-order rate constant kobs of ATZ degradation: [ATZ]0=10.0 μM, [PDS]0=5.0 mM, pH0=7.0, 25° C.
Protocol: Various reactions were carried out in 40 mL glass tubes with constant stirring at 300 rpm at 25±0.5° C. The temperature of solutions was monitored using a thermometer throughout the experiments. The initial concentration of atrazine (ATZ) was 10.0 uM, and the initial concentration of PDS was 5.0 mM. The irradiation fluxes emitted from the lamp and received by the solutions were measured with a LS125 UV light meter (Linshang Technology, Shenzhen, China) and a Solar Light PMA2100 radiometer (Solar Light Company, Philadelphia,
as §1
A simulated sunlight lamp was used as the light source in the instant example. The light fluxes that reaction solutions received in glass vials contained 39.8±0.5×10^−3 W/cm^2 of visible light in the wavelength (λ) range of 400-700 nm. The fluxes in the UV ranges contained 8.1±0.2×10^−6 W/cm^2 of UV-A (λ=315-400 nm) and 2.5±0.4×10^−6 W/cm^2 of UV-B (λ=280-315 nm), respectively. The UV-C flux (λ=230-280 nm) was negligible. Based on the flux measurement, UV light only accounted for <0.03% of the total light flux, and thus the light source utilized herein represents almost exclusively the visible light. The chemistry of PDS with visible light irradiation (PDS Light) and without (PDS Dark) was explored using six common herbicides and pharmaceuticals, namely atrazine (ATZ), sulfamethoxazole (SMX), trimethoprim (TMP), sulfadimethoxine (SDM), ibuprofen (IBP), and carbamazepine (CMZ) (FIGS. 1A-1F).

[4] = reported; cited from earlier work

| SMILES | rate constant for R1 (photolysis of PDS by light) ([1]; based on the rate constant of PDS decay in dark and under light) | PDS decayed ([1]; in dark) | PDS decayed ([1]; under visible light) [%] | ATZ degradation by PDS Light in presence of L-his ([2]; L-his 0.5 M) | effect of D2O on rate constant of ATZ degradation ([2]; PDS Dark) | pseudo-first-order rate constant for ATZ degradation in D2O relative to water ([2]; PDS Light) | pseudo-first-order rate constant kobs of ATZ degradation ([2]; PDS Light, anoxic condition (N2 purging), without scavengers) | ATZ degradation by PDS Light in presence of scavengers ([2]; all four scavengers (MeOH, TBA, L-his 0.5 M; SOD 50 U·ml^−1)) | ATZ degraded ([3]; PDS Dark, within 30 min) [%] | pseudo-first-order rate constant kobs of ATZ degradation ([3]; PDS Dark) | pseudo-first-order rate constants of ATZ degradation with UV filter versus without UV filter ([3]; PDS Light, UV filter film between lamp and vials) | degradation of ATZ ([3]; PDS Light, in 30 min) | pseudo-first-order rate constant kobs of ATZ degradation ([3]; PDS Light, oxic) | k(SO4^●−/ATZ) [4] |
| --- | --- | --- | --- | --- | --- | --- | --- | --- | --- | --- | --- | --- | --- | --- |
| O=S(=O)([O-])OOS(=O)(=O)[O-].[K+].[K+] [PDS, Potassium peroxydisulfate] | around 8.8±1.1×10^−3 min^−1 | Approximately 20% | ~90 |  |  |  |  |  |  |  |  |  |  |  |
| CCNc1nc(Cl)nc(NC(C)C)n1 [ATZ, 2-chloro-4-ethylamino-6-isopropylamino-s-triazine] |  |  |  | almost completely inhibited | negligible | more than 2.5 times | 7.3±0.9×10^−2 min^−1 | significantly hindered | 37 | 0.72±0.09×10^−2 min^−1 | not statistically different | complete degradation | 11±3.0×10^−2 min^−1 | 2.6−4.2×10^9 M^−1·s^−1 |

Source: patent US20240182333A1, “METHODS OF TREATING COMPOUNDS USING VISIBLE LIGHT-ENABLED ACTIVATION OF PEROXYDISULFATE” (THE TEXAS A&M UNIVERSITY SYSTEM, priority 2022, published 2024)
